Source: US20070243154A1, “Solubilization of acid ingredients” (L'OREAL, priority 2006, published 2007)

What was measured:
[1] = Solubility of salicylic acid in organic compounds liquid at room temperature; type: physicochemical; conditions: dissolved at 60° C., cooled to room temperature, left 2 hours
Method: In this example, the solubility of salicylic acid in different liquid materials was compared with mineral oil.
Preparation of Highly Concentrated Salicylic Acid Solutions
Salicylic acid was mixed with various organic compounds, liquid at room temperature, and heated to 60° C. The solution was stirred until all the salicylic acid was dissolved and then cooled to room temperature with stirring. The solution was left undisturbed for 2 hours and observed for crystallization.
The results are expressed by weight of the acid in the dissolving organic compound liquid at room temperature.

[2] = cited from earlier work

- solubility of salicylic acid ([1]; in C12-C15 alkyl benzoate): 4.8% w/w
- solubility of salicylic acid ([1]; in glyceryl isostearate): 8.25% w/w
- solubility of salicylic acid ([1]; in isostearic acid): 6.5% w/w
- solubility of salicylic acid ([1]; in isostearyl alcohol): 9.9% w/w
- solubility of salicylic acid ([1]; in oleic acid, observed for crystallization, by weight of acid in the solvent): 5.6% w/w
- solubility of salicylic acid ([1]; in propylene glycol isostearate): 9.9% w/w
Structure (SMILES): O=C(O)c1ccccc1O [Salicylic acid, 2-hydroxybenzoic acid]
- volume of alcohol in which 1 g dissolves ([2]; ethanol, 1 g dissolves in the stated volume): 2.7 mL
- volume of ether in which 1 g dissolves ([2]; ether, 1 g in the stated volume): 3 mL
- volume of water in which 1 g dissolves ([2]; water, 1 g in the stated volume): 460 mL
